Test results published in patent publication US11419335B2, “N-arylated analogues and uses thereof” (University of Florida Research Foundation, Incorporated, priority 2016, dated 2022).
≈ marks a conversion by molar mass, not a printed value. Where two headings read alike, the source gives them in different places. Marks after values point to notes of the source that are not given here.

Tests used:
[1] = test system: methicillin-resistant Staphylococcus aureus MRSA-2 (clinical isolate); test: MIC broth microdilution, MRSA-2; format: cell-based; conditions: for MIC: read-out: MIC MRSA-2
Method: (§1) The minimum inhibitory concentration (MIC) for each tested compound was determined by the broth microdilution method as recommended by the Clinical and Laboratory Standards Institute (CLSI). In a 96-well plate, eleven two-fold serial dilutions of each compound were made in a final volume of 100 μL Luria Broth. Each well was inoculated with ˜10^5 bacterial cells at the initial time of incubation, prepared from a fresh log phase culture (OD600 of 0.5 to 1.0 depending on bacterial strain). The MIC was defined as the lowest concentration of compound that prevented bacterial growth after incubating 16 to 18 hours at 37° C. (MIC values were supported by spectrophotometric readings at OD600). DMSO served as our vehicle and negative control in each microdilution MIC assay. DMSO was serially diluted with a top concentration of 1% v/v.
as §1, with “for each compound was” for “for each tested compound was”, “Standards Institute (CLSI).^6 In a” for “Standards Institute (CLSI). In a”, “concentration of test compound that” for “concentration of compound that”, “37° C. The concentration range tested for each compound during this study was 0.10 to 100 μM. DMSO served” for “37° C. (MIC values were supported by spectrophotometric readings at OD600). DMSO served”, “1% v/v. All MIC values were obtained from a minimum of three independent experiments.” for “1% v/v.”

[2] = test system: methicillin-resistant Staphylococcus epidermidis (MRSE strain ATCC 35984); test: MIC broth microdilution, MRSE 35984; format: cell-based; conditions: for MIC S. epidermidis MRSE 35984: Table 1A
Method: as §1
as §1, with “for each compound was” for “for each tested compound was”, “Standards Institute (CLSI).^6 In a” for “Standards Institute (CLSI). In a”, “concentration of test compound that” for “concentration of compound that”, “37° C. The concentration range tested for each compound during this study was 0.10 to 100 μM. DMSO served” for “37° C. (MIC values were supported by spectrophotometric readings at OD600). DMSO served”, “1% v/v. All MIC values were obtained from a minimum of three independent experiments.” for “1% v/v.”

[3] = test system: vancomycin-resistant Enterococcus faecium (VRE strain ATCC 700221); test: MIC broth microdilution, VRE 700221; format: cell-based; conditions: for MIC E. faecium VRE 700221: Table 1A
Method: as §1
as §1, with “for each compound was” for “for each tested compound was”, “Standards Institute (CLSI).^6 In a” for “Standards Institute (CLSI). In a”, “concentration of test compound that” for “concentration of compound that”, “37° C. The concentration range tested for each compound during this study was 0.10 to 100 μM. DMSO served” for “37° C. (MIC values were supported by spectrophotometric readings at OD600). DMSO served”, “1% v/v. All MIC values were obtained from a minimum of three independent experiments.” for “1% v/v.”

[4] = test system: Acinetobacter baumannii (ATCC 1794); test: MIC broth microdilution, A. baumannii 1794; format: cell-based; conditions: for MIC A. baumannii 1794: Table 1A
Method: as §1
as §1, with “for each compound was” for “for each tested compound was”, “Standards Institute (CLSI).^6 In a” for “Standards Institute (CLSI). In a”, “concentration of test compound that” for “concentration of compound that”, “37° C. The concentration range tested for each compound during this study was 0.10 to 100 μM. DMSO served” for “37° C. (MIC values were supported by spectrophotometric readings at OD600). DMSO served”, “1% v/v. All MIC values were obtained from a minimum of three independent experiments.” for “1% v/v.”

[5] = test system: Pseudomonas aeruginosa (PAO1); test: MIC broth microdilution, PAO1; format: cell-based
Method: as §1
as §1, with “for each compound was” for “for each tested compound was”, “Standards Institute (CLSI).^6 In a” for “Standards Institute (CLSI). In a”, “concentration of test compound that” for “concentration of compound that”, “37° C. The concentration range tested for each compound during this study was 0.10 to 100 μM. DMSO served” for “37° C. (MIC values were supported by spectrophotometric readings at OD600). DMSO served”, “1% v/v. All MIC values were obtained from a minimum of three independent experiments.” for “1% v/v.”

[6] = test system: human red blood cells (hRBC); test: Hemolysis of red blood cells; format: cell-based
Method: The washing was repeated three times with the buffer. In a 96-well plate, test compounds were added to the buffer from DMSO stocks. […] The plate was then incubated for 1 hour at 37° C. After incubation, the plate was centrifuged for 5 minutes at 3,500 rpm. Then 80 μL of the supernatant was transferred to another 96-well plate and the optical density (OD) was read at 405 nm. DMSO served as our negative control (0% hemolysis) while Triton X served as our positive control (100% hemolysis). […] All reported data correspond to three independent experiments. Ten-point dose-response curves were generated in 96-well plates to determine 50% hemolysis (HC50 values) of red blood cells.
The washing was repeated three times with the buffer. In 96-well plate, the test compounds were added to the buffer. Then 50 μL of 2% of hRBCs in the buffer were added to the test plate to make the final concentrations ranging from 0.2 to 200 μM of each test compound. The plate was then incubated for 1 hour at 37° C. After incubation, the plate was centrifuged for 5 minutes at 3500 rpm and then 80 μL of the supernatant was transferred to another 96-well plate and the Optical Density (OD) was read at 405 nm. DMSO served as our negative control (0% haemolysis) and Triton X served as our positive control (100% haemolysis). The HC50 (concentration of test compound required to lyse red blood cells by 50%) was calculated by plotting the dose-response curve (not shown) with Graphpad Prism 6.0. All data were obtained from three independent haemolysis experiments.

MRSA BAA-1707 = test: MIC broth microdilution, MRSA BAA-1707; format: cell-based, Staphylococcus aureus; conditions: for MIC MRSA 1707: Table 4
Method: as §1, with “The MIC was defined as the lowest concentration of compound that prevented bacterial growth after incubating 16 to 18 hours at 37° C.” left out
(§2) Each well was inoculated with ˜10^5 bacterial cells at the initial time of incubation, prepared from a fresh log phase culture (OD600 of 0.5 to 1.0 depending on bacterial strain). […] The concentration range tested for each compound during this study was 0.10 to 100 μM. DMSO served as our vehicle and negative control in each microdilution MIC assay. DMSO was serially diluted with a top concentration of 1% v/v. All MIC values were obtained from a minimum of three independent experiments.

[7] = test system: methicillin-sensitive Staphylococcus aureus ATCC 29213; test: MIC broth microdilution, S. aureus 29213; format: cell-based
Method: as §1, with “The MIC was defined as the lowest concentration of compound that prevented bacterial growth after incubating 16 to 18 hours at 37° C.” left out
as §2

SMILES	MIC MRSA-2 ([1]; Table 1A)	MIC MRSA-2 ([1]; Table 4)	MIC S. epidermidis MRSE 35984 [2]	MIC MRSE 35984 ([2]; Table 4)	MIC E. faecium VRE 700221 [3]	MIC VRE 700221 ([3]; Table 4)	MIC A. baumannii 1794 ([4]; in µM)	MIC A. bau. 1794 ([4]; Table 4)	MIC PAO1 ([5]; Table 1A) [µM]	MIC PAO1 ([5]; Table 4) [µM]	further results
CCCCCCCCCCCCCCCCn1c(C)[n+](Cc2cccc(F)c2)c2ccccc21.[Br-] [Compound 27]	6.25 µM	6.25 µM	9.38^a	9.38a micromolar	3.13 µM	3.13 µM	>100	>100 µM	> 100	>100	–
CCCCCCCCCCCCCCCCn1cc[n+](Cc2ccccc2C[n+]2ccn(CCCCCCCCCCCCCCCC)c2C)c1C [AB-3-35]	> 100 µM	–	> 100 µM	–	> 100 µM	–	>100	–	> 100	–	HC50 [6]: 34.5 µM
CCCCCCCCCCCCCCCCn1cc[n+](-c2ccc(OC(F)(F)F)cc2)c1C.[Br-] [Compound 7]	–	3.13 µM	–	–	–	–	–	18.8a micromolar	–	>100	MIC ([1]; Table 1B): 3.13 µM; MIC ([1]; Table 3): 3.13 µM; MIC MRSA BAA-1707 (MRSA BAA-1707; Table 1B): 4.69^a μM; MIC MRSA BAA-1707 (MRSA BAA-1707; Table 3): 4.69^a μM; MIC MRSA 1707 (MRSA BAA-1707): 4.69a micromolar; MIC S. aureus 29213 ([7]; Table 1B): 2.35^a μM; MIC S. aureus 29213 ([7]; Table 3): 2.35^a μM
CCCCCCCCCCCCCCCCn1cc[n+](Cc2ccc(Br)cc2)c1C.[Br-] [Compound 14]	6.25 µM	6.25 µM	6.25 µM	6.25 µM	4.69^a	4.69a micromolar	>100*	>100 µM	> 100	>100	–
CCCCCCCCCCCCCCCCn1ccnc1C [Compound 23, 1-hexadecyl-2-methyl-1H-imidazole]	6.25 µM (≈ 1.92 µg/mL)	–	3.13 µM (≈ 0.959 µg/mL)	–	2.35^a	–	>100	–	> 100	–	–
CCCCCCCCCCCCCCCCn1cc[n+](Cc2ccc(C(C)(C)C)cc2)c1C.[Br-] [Compound 13]	12.5 µM	12.5 µM	9.38^a	9.38a micromolar	4.69^a	4.69a micromolar	>100	>100 µM	> 100	>100	–
CCCCCCCCCCCCCCCCn1cc[n+](Cc2cc(C(F)(F)F)cc(C(F)(F)F)c2)c1C.[Br-] [Compound 19]	12.5 µM	12.5 µM	–	12.5 µM	9.38^a	9.38a micromolar	>100	>100 µM	> 100	>100	–
CCCCCCCCCCCCCCCCn1cc[n+](Cc2ccc(C(C)C)cc2)c1C.[Br-] [Compound 12]	6.25 µM	6.25 µM	2.35^a	2.35a micromolar	3.13 µM	3.13 µM	>100	>100 µM	> 100	>100	–
CCCCCCCCCCCCCCCCn1c(C)[n+](Cc2cccc(OC)c2)c2ccccc21.[Br-] [Compound 26]	3.13 µM	3.13 µM	6.25 µM	6.25 µM	1.56 µM	1.56 µM	>100	>100 µM	> 100	>100	–
CCCCCCCCCCCCCCCCn1cc[n+](-c2ccc(Oc3ccccc3)cc2)c1C.[Br-] [Compound 5]	–	4.69a micromolar	–	–	–	–	–	37.5a micromolar	–	>100	MIC MRSA-2 ([1]; Table 1B): 4.69^a μM; MIC MRSA-2 ([1]; Table 3): 4.69^a μM; MIC MRSA BAA-1707 (MRSA BAA-1707; Table 1B): 4.69^a μM; MIC MRSA BAA-1707 (MRSA BAA-1707; Table 3): 4.69^a μM; MIC MRSA 1707 (MRSA BAA-1707): 4.69a micromolar; MIC S. aureus 29213 ([7]; Table 1B): 4.69^a μM; MIC S. aureus 29213 ([7]; Table 3): 4.69^a μM
CCCCCCCCCCCCCCCCn1cc[n+](Cc2cc(Br)cc(Br)c2)c1C.[Br-] [Compound 20]	37.5 µM	37.5 µM	12.5 µM	12.5 µM	6.25 µM	6.25 µM	>100	>100 µM	> 100	>100	–
Cc1nccn1Cc1ccccc1 [Compound 22]	> 100 µM	–	> 100 µM	–	> 100 µM	–	>100	–	> 100	–	MIC ([1]; Staphylococcus aureus, MRSA, Table 4): > 100 µM; MIC ([2]; Staphylococcus epidermidis, Table 4, read-out: MIC MRSE 35984): > 100 µM; MIC ([3]; Table 4, read-out: MIC VRE 700221): > 100 µM; MIC ([4]; Acinetobacter baumannii, ATCC1794, Table 4, read-out: MIC A. bau. 1794): > 100 µM; MIC ([5]; Pseudomonas aeruginosa, PAO1, Table 4): > 100 µM
CCCCCCCCCCCCCCCCn1cc[n+](-c2ccc(C(F)(F)F)cc2)c1C.[Br-] [Compound 2]	–	–	–	–	–	–	–	–	–	–	RBC HC50 [6]: 13.4 µM; hemolytic activity [6]: potent hemolytic activities
C=CC[n+]1ccn(CCCCCCCCCCCCCCCC)c1C.[Br-] [Compound 10]	2.35^a	2.35a micromolar	0.78 µM	0.78 µM	2.35^a	2.35a micromolar	–	9.38a micromolar	> 100	>100	MIC A. baumannii 1794 [4]: 9.38^a
